Measured values taken from ChEMBL document CHEMBL1201862, “PubChem BioAssay data set” (2004).
The source made the active and inactive calls. For most assays here, no stated cut-off is given here; in the data, actives have a measured IC50 and inactives only a lower limit.

Legend:
Assay type in all cases: functional
[1] = target: T1, Protein RecA (Mycobacterium tuberculosis, UniProt P9WHJ3); test: Fluorescence Cell-Free Homogeneous Dose Retest to Identify Inhibitors of RecA-Intein Splicing Activity. [Related pubchem assays (depositor defined):AID2097, AID2223, AID489010, AID492950]
T1 sequence (P9WHJ3 whole entry): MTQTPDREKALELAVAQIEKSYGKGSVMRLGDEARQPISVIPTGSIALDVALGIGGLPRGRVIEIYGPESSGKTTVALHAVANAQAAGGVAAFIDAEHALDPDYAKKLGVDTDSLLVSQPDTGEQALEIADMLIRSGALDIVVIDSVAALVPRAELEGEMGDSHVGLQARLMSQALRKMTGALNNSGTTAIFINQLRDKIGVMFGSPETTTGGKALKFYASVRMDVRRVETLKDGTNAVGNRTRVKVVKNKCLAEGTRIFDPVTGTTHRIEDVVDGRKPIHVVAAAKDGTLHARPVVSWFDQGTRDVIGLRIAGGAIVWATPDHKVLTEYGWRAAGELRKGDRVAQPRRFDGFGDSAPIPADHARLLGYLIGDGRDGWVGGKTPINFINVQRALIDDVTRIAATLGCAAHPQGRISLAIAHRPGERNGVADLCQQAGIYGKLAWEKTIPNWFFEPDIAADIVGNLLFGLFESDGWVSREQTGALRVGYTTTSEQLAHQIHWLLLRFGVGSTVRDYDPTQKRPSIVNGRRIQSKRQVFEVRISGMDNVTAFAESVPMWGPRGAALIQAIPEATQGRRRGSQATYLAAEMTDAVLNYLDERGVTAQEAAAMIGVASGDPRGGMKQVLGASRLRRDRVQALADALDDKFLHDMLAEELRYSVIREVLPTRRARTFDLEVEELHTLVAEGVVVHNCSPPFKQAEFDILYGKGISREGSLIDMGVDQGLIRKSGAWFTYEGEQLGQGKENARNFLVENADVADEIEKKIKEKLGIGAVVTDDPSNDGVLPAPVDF

[2] = target: T2, Caspase-3 (Homo sapiens, UniProt P42574);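 further: Dose-response selectivity test against caspase-3 for candidate inhibitors of sentrin-specific proteases (SENPs)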
T2 sequence (P42574 whole entry): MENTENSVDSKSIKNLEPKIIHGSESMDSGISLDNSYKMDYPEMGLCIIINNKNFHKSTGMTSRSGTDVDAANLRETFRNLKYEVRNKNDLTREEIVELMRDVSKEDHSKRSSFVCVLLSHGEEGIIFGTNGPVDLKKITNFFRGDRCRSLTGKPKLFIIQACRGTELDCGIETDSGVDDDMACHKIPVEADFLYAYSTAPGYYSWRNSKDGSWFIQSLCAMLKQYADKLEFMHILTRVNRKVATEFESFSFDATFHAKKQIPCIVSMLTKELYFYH

[3] = target: T3, Sentrin-specific protease 7 (Homo sapiens, UniProt Q9BQF6);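 further: Luminescence-based dose-response confirmation of ultra-high-throughput screening hits, measuring inhibition of SENP7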
T3 sequence (Q9BQF6 whole entry): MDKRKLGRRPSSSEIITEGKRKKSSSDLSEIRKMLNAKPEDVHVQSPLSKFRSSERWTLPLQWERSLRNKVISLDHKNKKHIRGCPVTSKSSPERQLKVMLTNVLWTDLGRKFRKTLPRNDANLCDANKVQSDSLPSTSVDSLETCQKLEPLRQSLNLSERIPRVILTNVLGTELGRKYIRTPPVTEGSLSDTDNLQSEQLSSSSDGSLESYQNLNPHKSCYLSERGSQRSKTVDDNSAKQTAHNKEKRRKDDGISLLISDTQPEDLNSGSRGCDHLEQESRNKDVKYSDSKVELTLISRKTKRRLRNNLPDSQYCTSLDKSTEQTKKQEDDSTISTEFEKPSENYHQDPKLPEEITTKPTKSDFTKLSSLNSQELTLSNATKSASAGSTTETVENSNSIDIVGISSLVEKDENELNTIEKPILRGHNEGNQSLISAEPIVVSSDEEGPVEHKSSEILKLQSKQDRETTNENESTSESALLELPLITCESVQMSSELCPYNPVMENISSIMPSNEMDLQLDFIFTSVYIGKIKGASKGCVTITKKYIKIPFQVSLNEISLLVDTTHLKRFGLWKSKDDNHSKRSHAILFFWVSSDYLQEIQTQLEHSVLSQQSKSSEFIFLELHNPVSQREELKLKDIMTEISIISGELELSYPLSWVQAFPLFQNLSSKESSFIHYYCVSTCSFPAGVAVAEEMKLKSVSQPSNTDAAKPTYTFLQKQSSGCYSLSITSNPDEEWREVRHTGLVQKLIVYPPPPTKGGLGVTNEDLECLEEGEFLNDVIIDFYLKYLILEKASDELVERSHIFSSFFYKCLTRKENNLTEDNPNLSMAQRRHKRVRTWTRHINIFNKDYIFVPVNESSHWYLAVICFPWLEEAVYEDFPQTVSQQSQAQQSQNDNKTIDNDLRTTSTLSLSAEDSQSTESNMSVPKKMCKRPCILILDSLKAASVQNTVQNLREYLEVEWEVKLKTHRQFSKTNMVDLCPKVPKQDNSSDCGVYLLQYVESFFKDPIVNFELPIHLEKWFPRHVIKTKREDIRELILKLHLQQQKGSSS

Compound	EC50 [1]	IC50 [2]	IC50 [3]
CC(=O)NC1C(=O)N(CCN2CCOCC2)c2ccc(F)cc21 (centres undefined)	12.1 µM (active)		
O=C1N=C(NS(=O)(=O)Cc2ccccc2)S/C1=C1\C(=O)Nc2ccccc21		67.2 µM (active)	3.76 µM (active)
O=C1C=C(N2CCCCC2)c2ccccc2C1=O	1.25 µM (active)		
O=C(O)C1Nc2c(O)cc(Cl)c([N+](=O)[O-])c2C2C=CCC12 (centres undefined)	11.5 µM (active)		
Clc1ccc2nc(-c3ccc(Br)s3)cn2c1		11.2 µM (active)	7.91 µM (active)
Oc1ccc(N=Nc2c(O)ccc3ccccc23)cc1		49.7 µM (active)	8.49 µM (active)
